{
  "source": "the supplement of paper PMC7796163",
  "experiment_in_all_cases": "CYP enzyme activity (probe substrate metabolite formation) fold change vs solvent control; higher = stronger induction of CYP activity",
  "settings_in_all_cases": "HepaRG",
  "key": {"CYP2C19": {"target": "CYP2C19 (UniProt P33261)", "sequence (P33261 whole entry, canonical isoform)": "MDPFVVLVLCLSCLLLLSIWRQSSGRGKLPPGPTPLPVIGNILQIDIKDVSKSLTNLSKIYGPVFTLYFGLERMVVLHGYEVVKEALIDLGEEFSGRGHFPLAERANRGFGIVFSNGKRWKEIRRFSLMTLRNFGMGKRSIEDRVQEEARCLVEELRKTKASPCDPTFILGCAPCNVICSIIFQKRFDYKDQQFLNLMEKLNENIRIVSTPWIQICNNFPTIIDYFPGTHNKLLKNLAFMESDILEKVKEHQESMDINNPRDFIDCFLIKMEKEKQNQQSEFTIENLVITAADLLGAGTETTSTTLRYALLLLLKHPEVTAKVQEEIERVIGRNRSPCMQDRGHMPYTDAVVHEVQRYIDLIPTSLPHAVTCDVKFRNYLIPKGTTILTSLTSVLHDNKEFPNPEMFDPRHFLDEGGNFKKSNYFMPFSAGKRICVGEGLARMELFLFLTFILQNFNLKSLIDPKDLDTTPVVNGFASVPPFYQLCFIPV", "procedure": "(§1)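 Differentiated HepaRG cells were treated with 1, 5 or 10 µM of each PAH (0.5% DMSO) for 12, 24 or 48 h, then incubated for 3 h at 37 °C with a cocktail of isoform-specific CYP substrates (phenacetin for CYP1A2, bupropion for CYP2B6, amodiaquine for CYP2C8, tolbutamide for CYP2C9, mephenytoin for CYP2C19, propafenone for CYP2D6, atorvastatin for CYP3A4). Metabolite formation was quantified by LC-MS as a measure of CYP activity and reported as fold change over solvent control (mean ± SD, n=3). Values below the LLOQ were set to half the LLOQ.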"}, "CYP2C9": {"target": "CYP2C9 (UniProt P11712)", "sequence (P11712 whole entry)": "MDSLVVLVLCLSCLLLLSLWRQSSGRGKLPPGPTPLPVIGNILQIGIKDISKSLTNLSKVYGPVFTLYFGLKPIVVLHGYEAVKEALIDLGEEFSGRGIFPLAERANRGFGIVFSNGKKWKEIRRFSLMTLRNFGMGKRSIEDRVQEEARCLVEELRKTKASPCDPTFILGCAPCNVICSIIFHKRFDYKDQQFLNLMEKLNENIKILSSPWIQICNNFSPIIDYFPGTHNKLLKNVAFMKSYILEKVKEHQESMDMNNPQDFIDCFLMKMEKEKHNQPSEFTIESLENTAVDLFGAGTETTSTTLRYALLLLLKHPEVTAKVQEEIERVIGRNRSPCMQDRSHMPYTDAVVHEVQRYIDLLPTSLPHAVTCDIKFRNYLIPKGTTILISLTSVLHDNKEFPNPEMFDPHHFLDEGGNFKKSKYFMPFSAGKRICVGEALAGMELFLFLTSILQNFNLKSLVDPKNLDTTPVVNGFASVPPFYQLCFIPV", "procedure": "as §1"}, "CYP1A2": {"target": "T1, CYP1A2 (UniProt P05177)", "T1 sequence (whole entry)": "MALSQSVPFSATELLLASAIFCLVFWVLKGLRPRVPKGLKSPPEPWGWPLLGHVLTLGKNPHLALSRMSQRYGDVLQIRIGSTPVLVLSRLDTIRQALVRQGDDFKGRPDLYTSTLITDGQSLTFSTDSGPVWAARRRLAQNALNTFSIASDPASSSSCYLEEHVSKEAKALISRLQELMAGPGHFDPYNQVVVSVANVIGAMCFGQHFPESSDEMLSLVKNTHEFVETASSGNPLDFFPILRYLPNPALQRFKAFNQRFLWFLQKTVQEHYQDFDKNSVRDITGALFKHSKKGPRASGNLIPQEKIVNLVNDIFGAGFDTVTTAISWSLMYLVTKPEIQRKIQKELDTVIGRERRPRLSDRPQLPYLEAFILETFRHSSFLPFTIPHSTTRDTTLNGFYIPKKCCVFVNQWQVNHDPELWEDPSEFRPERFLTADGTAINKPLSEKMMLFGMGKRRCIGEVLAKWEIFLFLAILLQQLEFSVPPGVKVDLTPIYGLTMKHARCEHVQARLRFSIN", "procedure": "as §1"}, "CYP2C8": {"target": "T2, CYP2C8 (UniProt P10632)", "T2 sequence (whole entry)": "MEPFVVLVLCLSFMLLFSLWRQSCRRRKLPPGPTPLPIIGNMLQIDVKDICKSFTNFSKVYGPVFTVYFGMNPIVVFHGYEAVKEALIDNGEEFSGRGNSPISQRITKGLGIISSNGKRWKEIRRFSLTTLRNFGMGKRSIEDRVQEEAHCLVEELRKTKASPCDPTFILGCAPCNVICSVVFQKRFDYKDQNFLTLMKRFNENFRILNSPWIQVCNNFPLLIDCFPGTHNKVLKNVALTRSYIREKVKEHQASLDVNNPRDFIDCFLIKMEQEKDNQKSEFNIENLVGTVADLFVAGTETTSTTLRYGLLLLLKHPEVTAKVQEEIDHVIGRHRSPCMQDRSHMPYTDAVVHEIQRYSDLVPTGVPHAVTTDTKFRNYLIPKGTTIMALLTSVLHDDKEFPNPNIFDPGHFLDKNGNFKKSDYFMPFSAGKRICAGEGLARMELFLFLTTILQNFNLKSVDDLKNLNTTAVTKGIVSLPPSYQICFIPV", "procedure": "as §1"}, "CYP3A4": {"target": "CYP3A4 (UniProt P08684)", "sequence (P08684 whole entry)": "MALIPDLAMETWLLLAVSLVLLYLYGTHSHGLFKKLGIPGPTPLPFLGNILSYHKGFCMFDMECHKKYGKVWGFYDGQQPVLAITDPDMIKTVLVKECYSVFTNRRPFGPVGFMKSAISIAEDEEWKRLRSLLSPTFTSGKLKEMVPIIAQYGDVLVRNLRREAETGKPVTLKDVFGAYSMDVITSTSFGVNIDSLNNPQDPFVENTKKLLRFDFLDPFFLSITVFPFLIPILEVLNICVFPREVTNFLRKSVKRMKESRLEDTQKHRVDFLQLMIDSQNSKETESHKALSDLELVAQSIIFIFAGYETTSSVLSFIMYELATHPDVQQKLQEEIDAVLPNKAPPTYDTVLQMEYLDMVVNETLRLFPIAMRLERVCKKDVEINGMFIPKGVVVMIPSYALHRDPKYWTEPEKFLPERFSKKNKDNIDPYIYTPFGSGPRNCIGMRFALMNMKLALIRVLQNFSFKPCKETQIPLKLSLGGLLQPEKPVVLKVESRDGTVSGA", "procedure": "as §1"}, "CYP2D6": {"target": "CYP2D6 (UniProt P10635)", "sequence (P10635 whole entry)": "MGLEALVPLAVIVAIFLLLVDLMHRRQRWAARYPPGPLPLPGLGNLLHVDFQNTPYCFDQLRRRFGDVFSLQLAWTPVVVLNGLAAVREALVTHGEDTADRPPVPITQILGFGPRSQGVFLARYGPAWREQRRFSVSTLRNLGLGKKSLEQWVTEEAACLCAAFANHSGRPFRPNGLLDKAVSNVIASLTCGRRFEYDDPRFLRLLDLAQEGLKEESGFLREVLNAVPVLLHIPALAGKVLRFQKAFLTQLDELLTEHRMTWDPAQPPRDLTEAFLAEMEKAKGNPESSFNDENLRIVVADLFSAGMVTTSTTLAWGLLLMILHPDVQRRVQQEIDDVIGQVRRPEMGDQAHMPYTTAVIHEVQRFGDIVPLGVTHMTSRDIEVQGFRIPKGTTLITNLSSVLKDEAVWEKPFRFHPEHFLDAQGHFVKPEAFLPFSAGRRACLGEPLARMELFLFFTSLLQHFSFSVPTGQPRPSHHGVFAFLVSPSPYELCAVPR", "procedure": "as §1"}, "CYP2B6": {"target": "T3, CYP2B6 (UniProt P20813)", "T3 sequence (whole entry)": "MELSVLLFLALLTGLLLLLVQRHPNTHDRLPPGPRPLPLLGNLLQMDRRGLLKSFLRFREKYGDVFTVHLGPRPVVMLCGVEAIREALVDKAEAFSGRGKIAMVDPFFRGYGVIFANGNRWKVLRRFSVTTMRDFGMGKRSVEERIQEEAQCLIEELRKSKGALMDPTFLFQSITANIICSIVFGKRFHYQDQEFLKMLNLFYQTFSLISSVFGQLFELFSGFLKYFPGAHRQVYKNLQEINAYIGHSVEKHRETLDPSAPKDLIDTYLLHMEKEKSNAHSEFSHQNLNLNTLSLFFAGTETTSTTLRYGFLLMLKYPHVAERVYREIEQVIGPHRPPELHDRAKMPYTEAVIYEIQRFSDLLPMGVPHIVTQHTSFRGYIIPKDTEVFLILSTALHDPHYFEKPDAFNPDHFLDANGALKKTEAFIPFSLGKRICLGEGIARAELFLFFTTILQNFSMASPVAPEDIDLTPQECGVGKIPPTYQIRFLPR", "procedure": "as §1"}},
  "note": "± gives the uncertainty stated by the source.",
  "data": [
    {"smiles": "c1ccc2cc3c(ccc4ccccc43)cc2c1", "note": "[benzo[a]anthracene]", "values": [
      {"measurement": "CYP enzyme activity", "setting": "CYP2C19; 1 µM, treatment time 12 h", "result": "0.754 ± 0.053"},
      {"measurement": "CYP enzyme activity", "setting": "CYP2C19; 1 µM, treatment time 24 h", "result": "0.826 ± 0.19"},
      {"measurement": "CYP enzyme activity", "setting": "CYP2C19; 1 µM, treatment time 48 h", "result": "0.862 ± 0.046"},
      {"measurement": "CYP enzyme activity", "setting": "CYP2C19; 5 µM, treatment time 12 h", "result": "0.94 ± 0.1"},
      {"measurement": "CYP enzyme activity", "setting": "CYP2C19; 5 µM, treatment time 24 h", "result": "0.934 ± 0.086"},
      {"measurement": "CYP enzyme activity", "setting": "CYP2C19; 5 µM, treatment time 48 h", "result": "1.003 ± 0.0076"},
      {"measurement": "CYP enzyme activity", "setting": "CYP2C19; 10 µM, treatment time 12 h", "result": "0.934 ± 0.083"},
      {"measurement": "CYP enzyme activity", "setting": "CYP2C19; 10 µM, treatment time 24 h", "result": "0.925 ± 0.022"},
      {"measurement": "CYP enzyme activity", "setting": "CYP2C19; 10 µM, treatment time 48 h", "result": "0.882 ± 0.072"},
      {"measurement": "CYP enzyme activity", "setting": "CYP2C9; 1 µM, treatment time 12 h", "result": "0.88 ± 0.17"},
      {"measurement": "CYP enzyme activity", "setting": "CYP2C9; 1 µM, treatment time 24 h", "result": "1 ± 0.16"},
      {"measurement": "CYP enzyme activity", "setting": "CYP2C9; 1 µM, treatment time 48 h", "result": "0.927 ± 0.054"},
      {"measurement": "CYP enzyme activity", "setting": "CYP2C9; 5 µM, treatment time 12 h", "result": "0.995 ± 0.12"},
      {"measurement": "CYP enzyme activity", "setting": "CYP2C9; 5 µM, treatment time 24 h", "result": "1.02 ± 0.18"},
      {"measurement": "CYP enzyme activity", "setting": "CYP2C9; 5 µM, treatment time 48 h", "result": "0.989 ± 0.055"},
      {"measurement": "CYP enzyme activity", "setting": "CYP2C9; 10 µM, treatment time 12 h", "result": "0.949 ± 0.11"},
      {"measurement": "CYP enzyme activity", "setting": "CYP2C9; 10 µM, treatment time 24 h", "result": "1.02 ± 0.064"},
      {"measurement": "CYP enzyme activity", "setting": "CYP2C9; 10 µM, treatment time 48 h", "result": "0.849 ± 0.063"},
      {"measurement": "CYP enzyme activity", "setting": "CYP1A2; 1 µM, treatment time 12 h", "result": "1.41 ± 0.23"},
      {"measurement": "CYP enzyme activity", "setting": "CYP1A2; 1 µM, treatment time 24 h", "result": "1.01 ± 0.13"},
      {"measurement": "CYP enzyme activity", "setting": "CYP1A2; 1 µM, treatment time 48 h", "result": "0.817 ± 0.083"},
      {"measurement": "CYP enzyme activity", "setting": "CYP1A2; 5 µM, treatment time 12 h", "result": "5.62 ± 2.2"},
      {"measurement": "CYP enzyme activity", "setting": "CYP1A2; 5 µM, treatment time 24 h", "result": "4.68 ± 0.96"},
      {"measurement": "CYP enzyme activity", "setting": "CYP1A2; 5 µM, treatment time 48 h", "result": "1.98 ± 0.22"},
      {"measurement": "CYP enzyme activity", "setting": "CYP1A2; 10 µM, treatment time 12 h", "result": "9.59 ± 3"},
      {"measurement": "CYP enzyme activity", "setting": "CYP1A2; 10 µM, treatment time 24 h", "result": "9.37 ± 2"},
      {"measurement": "CYP enzyme activity", "setting": "CYP1A2; 10 µM, treatment time 48 h", "result": "3.86 ± 0.35"},
      {"measurement": "CYP enzyme activity", "setting": "CYP2C8; 1 µM, treatment time 12 h", "result": "0.978 ± 0.036"},
      {"measurement": "CYP enzyme activity", "setting": "CYP2C8; 1 µM, treatment time 24 h", "result": "0.978 ± 0.085"},
      {"measurement": "CYP enzyme activity", "setting": "CYP2C8; 1 µM, treatment time 48 h", "result": "1.01 ± 0.067"},
      {"measurement": "CYP enzyme activity", "setting": "CYP2C8; 5 µM, treatment time 12 h", "result": "0.953 ± 0.026"},
      {"measurement": "CYP enzyme activity", "setting": "CYP2C8; 5 µM, treatment time 24 h", "result": "0.973 ± 0.075"},
      {"measurement": "CYP enzyme activity", "setting": "CYP2C8; 5 µM, treatment time 48 h", "result": "0.898 ± 0.067"},
      {"measurement": "CYP enzyme activity", "setting": "CYP2C8; 10 µM, treatment time 12 h", "result": "0.992 ± 0.067"},
      {"measurement": "CYP enzyme activity", "setting": "CYP2C8; 10 µM, treatment time 24 h", "result": "0.875 ± 0.045"},
      {"measurement": "CYP enzyme activity", "setting": "CYP2C8; 10 µM, treatment time 48 h", "result": "0.792 ± 0.051"},
      {"measurement": "CYP enzyme activity", "setting": "CYP3A4; 1 µM, treatment time 12 h", "result": "0.717 ± 0.12"},
      {"measurement": "CYP enzyme activity", "setting": "CYP3A4; 1 µM, treatment time 24 h", "result": "0.662 ± 0.062"},
      {"measurement": "CYP enzyme activity", "setting": "CYP3A4; 1 µM, treatment time 48 h", "result": "0.702 ± 0.075"},
      {"measurement": "CYP enzyme activity", "setting": "CYP3A4; 5 µM, treatment time 12 h", "result": "0.809 ± 0.11"},
      {"measurement": "CYP enzyme activity", "setting": "CYP3A4; 5 µM, treatment time 24 h", "result": "0.844 ± 0.086"},
      {"measurement": "CYP enzyme activity", "setting": "CYP3A4; 5 µM, treatment time 48 h", "result": "0.754 ± 0.12"},
      {"measurement": "CYP enzyme activity", "setting": "CYP3A4; 10 µM, treatment time 12 h", "result": "0.907 ± 0.23"},
      {"measurement": "CYP enzyme activity", "setting": "CYP3A4; 10 µM, treatment time 24 h", "result": "0.855 ± 0.062"},
      {"measurement": "CYP enzyme activity", "setting": "CYP3A4; 10 µM, treatment time 48 h", "result": "0.702 ± 0.12"},
      {"measurement": "CYP enzyme activity", "setting": "CYP2D6; 1 µM, treatment time 12 h", "result": "0.865 ± 0.17"},
      {"measurement": "CYP enzyme activity", "setting": "CYP2D6; 1 µM, treatment time 24 h", "result": "0.833 ± 0.064"},
      {"measurement": "CYP enzyme activity", "setting": "CYP2D6; 1 µM, treatment time 48 h", "result": "0.696 ± 0.0073"},
      {"measurement": "CYP enzyme activity", "setting": "CYP2D6; 5 µM, treatment time 12 h", "result": "1.66 ± 0.47"},
      {"measurement": "CYP enzyme activity", "setting": "CYP2D6; 5 µM, treatment time 24 h", "result": "1.15 ± 0.099"},
      {"measurement": "CYP enzyme activity", "setting": "CYP2D6; 5 µM, treatment time 48 h", "result": "0.774 ± 0.19"},
      {"measurement": "CYP enzyme activity", "setting": "CYP2D6; 10 µM, treatment time 12 h", "result": "2.55 ± 0.8"},
      {"measurement": "CYP enzyme activity", "setting": "CYP2D6; 10 µM, treatment time 24 h", "result": "1.41 ± 0.24"},
      {"measurement": "CYP enzyme activity", "setting": "CYP2D6; 10 µM, treatment time 48 h", "result": "0.712 ± 0.12"},
      {"measurement": "CYP enzyme activity", "setting": "CYP2B6; 1 µM, treatment time 12 h", "result": "0.781 ± 0.096"},
      {"measurement": "CYP enzyme activity", "setting": "CYP2B6; 1 µM, treatment time 24 h", "result": "0.901 ± 0.12"},
      {"measurement": "CYP enzyme activity", "setting": "CYP2B6; 1 µM, treatment time 48 h", "result": "0.683 ± 0.039"},
      {"measurement": "CYP enzyme activity", "setting": "CYP2B6; 5 µM, treatment time 12 h", "result": "1.1 ± 0.087"},
      {"measurement": "CYP enzyme activity", "setting": "CYP2B6; 5 µM, treatment time 24 h", "result": "1.45 ± 0.18"},
      {"measurement": "CYP enzyme activity", "setting": "CYP2B6; 5 µM, treatment time 48 h", "result": "0.896 ± 0.1"},
      {"measurement": "CYP enzyme activity", "setting": "CYP2B6; 10 µM, treatment time 12 h", "result": "1.11 ± 0.12"},
      {"measurement": "CYP enzyme activity", "setting": "CYP2B6; 10 µM, treatment time 24 h", "result": "1.63 ± 0.068"},
      {"measurement": "CYP enzyme activity", "setting": "CYP2B6; 10 µM, treatment time 48 h", "result": "0.97 ± 0.2"}
    ]}
  ]
}
